# Measured values from patent publication US20060110456A1, “Method for biocidal and/or biostatic treatment and compositions therefor” (NATIONAL UNIVERSITY OF SINGAPORE, priority 2004, published 2006).
# Entries after “also recorded” stand apart in the source; their conditions may differ. Counter-ions that a name gives are not always drawn. Like-named read-outs stand apart in the source and are kept apart here.
# Key:
# [1] = tested on: marine bacteria (26 strains); experiment: Disk inhibition assay; assay type: cell-based, marine bacteria isolated from Singapore fouling communities; settings: for zone of inhibition at 25 µg/disc: 25 μg per disc; for zone of inhibition at 50 µg/disc: 50 μg per disc
# Procedure, shortened: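 Tablets or capsule powders suspended in sterile water at 2 mg ml^−1 and loaded onto disks; antibiotic discs (Amp, Ery, Str, Tet) served as comparison. Disks placed on swabbed lawns on Marine Agar, incubated overnight in the dark at 30° C. Zone of clearing diameter measured by calipers; three replicates on three occasions.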
# [2] = tested on: barnacle nauplii; experiment: Toxicity of drugs under different light conditions and over time (stability in seawater); assay type: in vivo, Balanus amphitrite; settings: 25 ug ml^−1 seawater suspension
# Experimental: Preliminary experiments were carried out to examine the chemical stability of the drugs. 25 ug ml^−1 seawater suspensions of the drugs were prepared, in 3 replicates per condition, 3 replicate tubes containing 15 ml per test tube per prepared for each treatment type. The treatments consisted of: • i. Dark condition: tubes were wrapped in aluminium foil and kept in the dark at all times • ii. 12L:12D condition, where the tubes were subject incubated in a plant growth chamber with light regime of 12 hours light and 12 hours dark. • iii. UV treated tubes were subject to UV for half an hour. […] Sets (1) & (2) were tested at week 0, 1, 2 and after 4 weeks. “UV” set is only assayed after UV treatment. […] Effect of UV
# [3] = tested on: biofilm bacteria (strains 4, 9, 14, 20, 27, 28); experiment: Effect of pharmaceuticals on adhesion of bacteria to plastic / biofilm formation on NTC and TC plates; assay type: cell-based, marine bacteria isolated from Singapore fouling communities
# Experimental: Commercial forms of pharmaceuticals were used as previously described. […] These samples were sonicated for at least 1 min and these fine suspensions were used as initial stock solutions.
# For studies of bacterial adhesion, the pharmaceuticals were first sterilized by soaking in absolute alcohol (Merck) for half an hour. Ethanol was removed by air-drying with air passed through 0.25 μm pore size syringe filter (Sartorius, Germany). Stock solutions were concentrations of 100 μg ml−1 in SDI.
# The effect of pharmaceuticals on bacterial adhesion was analyzed using a modified microplate method adapted from Shea and Williamson (1990). This method employs a combination of staining attached bacteria with crystal violet, releasing the stain with sodium desoxycholate, and measuring the resulting absorbance of the crystal violet.
# Detailed results for six selected strains are presented here: strains 4, 9, 14, 20, 27, 28. The bacterial strains were grown in Marine Broth (Pronadisa, Spain) overnight, in the dark, at 28° C. on a rotary shaker (150 rpm) in 5 ml centrifuge tubes (Falcon). Cells were harvested by centrifugation (1500×g, 10 min) and resuspended in sterile seawater (SSW). SSW was prepared by filtering seawater through a 0.2 μm pore size filter (Sartorius) followed by autoclaving. The cells were centrifuged and resuspended once more in SSW. The concentration of resuspended cells was adjusted to A600=1.0 using a spectrophotometer (Beckman DU530, USA).
# Flat bottom 96 well polystyrene (hydrophobic, Falcon 351172) (=NTC) and tissue-culture treated polystyrene (hydrophilic, Falcon 353072) (=TC) microplates were used in the analyses. Each test was performed in triplicate. Two sets of experiments were conducted. […] For the control and blank wells, 25 ul of SDI were added. For wells containing pharmaceuticals, 25 ul of the respective pharmaceutical at a concentration of 100 ug ml−1 were added. This was immediately followed by the addition of 75 ul of bacterial suspension. To blanks were added 75 ul of SSW.
# The bacterial cells in suspension were allowed to attach for 2 h at 28° C. Unattached cells were removed by aspiration using a plate washer (Tecan, Austria) and wells were rinsed three times with 200 ul of SSW each time. The attached cells were stained with 200 ul of crystal violet solution (0.1% w/v in deionized water) in each well for 5 min. After removing the stain using the plate washer, the wells were rinsed twice with 300 ul of SDI each time. Sodium desoxycholate (200 ul) solution (2% w/v in deionized water) was added to each well to extract the crystal violet from the attached stained cells for 10 min. The absorbance of the crystal violet was read at 590 nm using a microplate reader (Sunrise, Tecan, Austria).
# Results of the adhesion assay were obtained by the difference in absorbance readings between wells containing bacterial cells and the mean of absorbance of those containing the SSW only. The effect of the pharmaceuticals on bacterial adhesion was determined by the examining the differences in absorbance between the wells containing the pharmaceuticals+bacteria and the bacteria. The significance was compared using T-test.
# [4] = crude rank, best (1) to worst (8)
structure (smiles),measurement,setting,value
"CNCCC(Oc1ccc(C(F)(F)F)cc1)c1ccccc1 (stereo not shown) [PZC, fluoxetine hydrochloride]",Activity against the three Vibrio strains tested,[1],exhibited activity against the three Vibrio strains tested
same,Antibiotic activity against marine bacteria,[1],strongest activity
same,Number of strains inhibited out of 26 strains,[1],23
same,Strains showing no inhibition (of 26),[1],only strain 6 was not inhibited
same,Antibiotic activity against marine bacteria,[1]; [4],2
same,zone of inhibition at 25 µg/disc,[1]; strain 1 (Rhodovulum),< 5 mm
same,zone of inhibition at 50 µg/disc,[1]; strain 1 (Rhodovulum),5 to 9 mm
same,zone of inhibition at 25 µg/disc,[1]; strain 2 (Erythrobacter),10 to 19 mm
same,zone of inhibition at 50 µg/disc,[1]; strain 2 (Erythrobacter),10 to 19 mm
same,zone of inhibition at 25 µg/disc,[1]; strain 3 (Erythrobacter),10 to 19 mm
same,zone of inhibition at 50 µg/disc,[1]; strain 3 (Erythrobacter),10 to 19 mm
same,zone of inhibition at 25 µg/disc,[1]; strain 4 (Bacillus),10 to 19 mm
same,zone of inhibition at 50 µg/disc,[1]; strain 4 (Bacillus),20 to 29 mm
same,zone of inhibition at 25 µg/disc,[1]; strain 6 (Vibrio),< 5 mm
same,zone of inhibition at 50 µg/disc,[1]; strain 6 (Vibrio),< 5 mm
same,zone of inhibition at 25 µg/disc,[1]; strain 7 (Vibrio),< 5 mm
same,zone of inhibition at 50 µg/disc,[1]; strain 7 (Vibrio),10 to 19 mm
same,zone of inhibition at 25 µg/disc,[1]; strain 8 (Bacillus),10 to 19 mm
same,zone of inhibition at 50 µg/disc,[1]; strain 8 (Bacillus),20 to 29 mm
same,zone of inhibition at 25 µg/disc,[1]; strain 9 (Bacillus),10 to 19 mm
same,zone of inhibition at 50 µg/disc,[1]; strain 9 (Bacillus),10 to 19 mm
same,zone of inhibition at 25 µg/disc,[1]; strain 10 (Halobacillus),10 to 19 mm
same,zone of inhibition at 50 µg/disc,[1]; strain 10 (Halobacillus),10 to 19 mm
same,zone of inhibition at 25 µg/disc,[1]; strain 11 (Pseudomonas),10 to 19 mm
same,zone of inhibition at 50 µg/disc,[1]; strain 11 (Pseudomonas),20 to 29 mm
same,zone of inhibition at 25 µg/disc,[1]; strain 12 (Gordonia),10 to 19 mm
same,zone of inhibition at 50 µg/disc,[1]; strain 12 (Gordonia),20 to 29 mm
same,zone of inhibition at 25 µg/disc,[1]; strain 13 (Bacillus),10 to 19 mm
same,zone of inhibition at 50 µg/disc,[1]; strain 13 (Bacillus),10 to 19 mm
same,zone of inhibition at 25 µg/disc,[1]; strain 14 (Vibrio),10 to 19 mm
same,zone of inhibition at 50 µg/disc,[1]; strain 14 (Vibrio),10 to 19 mm
same,zone of inhibition at 25 µg/disc,[1]; strain 16 (Pseudoalteromonas),5 to 9 mm
same,zone of inhibition at 50 µg/disc,[1]; strain 16 (Pseudoalteromonas),10 to 19 mm
same,zone of inhibition at 25 µg/disc,[1]; strain 17 (Gordonia),10 to 19 mm
same,zone of inhibition at 50 µg/disc,[1]; strain 17 (Gordonia),20 to 29 mm
same,zone of inhibition at 25 µg/disc,[1]; strain 18 (Microbacterium),10 to 19 mm
same,zone of inhibition at 50 µg/disc,[1]; strain 18 (Microbacterium),10 to 19 mm
same,zone of inhibition at 25 µg/disc,[1]; strain 19 (Erythrobacter),10 to 19 mm
same,zone of inhibition at 50 µg/disc,[1]; strain 19 (Erythrobacter),20 to 29 mm
same,zone of inhibition at 25 µg/disc,[1]; strain 20,10 to 19 mm
same,zone of inhibition at 50 µg/disc,[1]; strain 20,10 to 19 mm
same,zone of inhibition at 25 µg/disc,[1]; strain 21,5 to 9 mm
same,zone of inhibition at 50 µg/disc,[1]; strain 21,10 to 19 mm
same,zone of inhibition at 25 µg/disc,[1]; strain 22,10 to 19 mm
same,zone of inhibition at 50 µg/disc,[1]; strain 22,10 to 19 mm
same,zone of inhibition at 25 µg/disc,[1]; strain 24,5 to 9 mm
same,zone of inhibition at 50 µg/disc,[1]; strain 24,10 to 19 mm
same,zone of inhibition at 25 µg/disc,[1]; strain 26,5 to 9 mm
same,zone of inhibition at 50 µg/disc,[1]; strain 26,5 to 9 mm
same,zone of inhibition at 25 µg/disc,[1]; strain 27,20 to 29 mm
same,zone of inhibition at 50 µg/disc,[1]; strain 27,20 to 29 mm
same,zone of inhibition at 25 µg/disc,[1]; strain 28,10 to 19 mm
same,zone of inhibition at 50 µg/disc,[1]; strain 28,10 to 19 mm
same,zone of inhibition at 25 µg/disc,[1]; strain 29,10 to 19 mm
same,zone of inhibition at 50 µg/disc,[1]; strain 29,20 to 29 mm
same,zone of inhibition at 25 µg/disc,[1]; strain 30,10 to 19 mm
same,zone of inhibition at 50 µg/disc,[1]; strain 30,10 to 19 mm
same,"Change in toxicity on ageing in seawater, 12L:12D condition","[2]; 12 h light and 12 h dark, after 4 weeks",did not show an appreciable change
same,Effect of UV on drug toxicity to barnacle nauplii,[2]; UV for half an hour,some increase in toxicity
same,Effect on formation of bacterial biofilms on NTC and TC plates,"[3]; 25 ug ml−1, NTC = untreated polystyrene, TC = tissue-culture treated, strains 4, 9, 14, 20, 27, 28, hydrochloride",slight effect on biofilm formation in strain 4 on both TC and NTC plates; also recorded: slight effect on strain 4 (p<0.1)
same,Prevention of formation of biofilm,[3]; [4],5
